Data taken from patent US20240010589A1, “SUBSTITUTED RESORCINOL COMPOUNDS AS AMPK ACTIVATORS, COMPOSITIONS, METHODS AND USES THEREOF” (SOCIETE DES PRODUITS NESTLE S.A., priority 2020, published 2024).
“Also recorded” adds a separate entry of the source.

Experiments:
[1] = test system: AMPK; test: pACC HTRF assay (Cisbio) in U-2 OS Flp-In T-REx cells; format: cell-based; settings: varying concentrations, 30 mins at 37 C, FIG. 1
Procedure: Compound 1 increased the phosphorylation of the AMPK substrate, acetyl-CoA carboxylase (ACC), in U-2 OS Flp-In T-REx mammalian cells. U-2 OS cells were treated with varying concentrations of Compound 1 for 30 mins at 37 C. Phosphorylation of ACC was assessed using the HTRF Cisbio (pACC kit). […] U-2 OS Flp-In T-REx cells were seeded at 50 K in a 96-well plate and left overnight at 37 C in DMEM GlutaMAX (Thermo Fisher Scientific) supplemented with 10% (vol/vol) FBS and 100 U/ml penicillin G, and 100 μg/ml streptomycin. Cells were treated for 30 mins with varying concentrations of Compound 1 in media lacking FBS and then cells were lysed in 50 μl of Cisbio lysis buffer #1 supplemented with blocking solution as per the manufacturer's protocol (Cisbio). Cells were lysed for 30 mins at room temperature before 16 μl of lysate was incubated with 4 μl of the HTRF antibodies (1:40 dilution of the acceptor and donor (p)ACC antibodies, as per the manufacturers protocol). Lysates were incubated overnight with the antibodies before the 665 nm/620 nm ratio was determined using a MolecularDevices i3 plate reader (with a HTRF cartridge add-on). […] Phosphorylation of ACC is extensively used as a cellular read-out of AMPK activity.

[2] = test system: AMPK containing β1 wild-type (WT) subunit; test: pACC HTRF assay in AMPKβ1/β2 double knockout U-2 OS cells stably expressing β1 WT; format: cell-based, human; settings: varying concentrations, 30 mins at 37 C, FIG. 2
Procedure: (§1) The β1 WT or β1 S108A mutant were stably expressed in […] double knockout cells and were treated with varying concentrations of Compound 1 for 30 mins at 37 C. Phosphorylation of ACC was assessed using the HTRF Cisbio (pACC kit).
(§2) AMPKβ1/β2 double knockout U-2 OS Flp-In™ T-Rex™ cell lines were generated by Horizon Discovery (Cambridge, UK). Cells were genotyped and analysed by Western blotting to confirm that there was a complete knockout of AMPKβ1/β2. We took these AMPKβ1/β2 double knockout cells, and re-introduced the expression of human β1 wild-type (WT) or a (31 Serine 108 to alanine mutation (S108A). This was achieved using the Flp-In™ system (Invitrogen) present in this cell line and stable cells expressing β1 WT or a β1 S108A mutant were generated according to the manufacturers' protocols. Re-expression of the β1 subunit was confirmed by Western blot analysis.
(§3) Cells stably expressing β1 WT or a β1 S108A mutant were treated with varying concentrations of Compound 1. Cells lysates were subjected to the pACC HTRF (Cisbio) assay to determine the level of phosphorylation of the AMPK substrate, ACC, in cell lysates, as in example 1.

[3] = test system: AMPK containing β1 S108A (ADaM site) mutant subunit; test: pACC HTRF assay in AMPKβ1/β2 double knockout U-2 OS cells stably expressing β1 S108A mutant; format: cell-based, human; settings: varying concentrations, 30 mins at 37 C, FIG. 2
Procedure: as §1, §2, §3

Structure (SMILES): C=C(C)[C@@H]1CCC(C)=C[C@H]1c1c(O)cc(CCCCC)cc1O [Compound 1, 2-[(1R,6R)-3-Methyl-6-(1-methylethenyl)-2-cyclohexen-1-yl]-5-pentyl-1,3-benzenediol]
- phosphorylation of the AMPK substrate ACC (HTRF ratio 665/620 nm) [1]: increased the phosphorylation of the AMPK substrate, ACC, in a dose-dependent manner
- phosphorylation of ACC (pACC), fold increase in activation [2]: able to dose-dependently increase pACC
- phosphorylation of ACC (pACC) / AMPK activation, fold increase in activation [3]: did not activate AMPK; also recorded: not able to increase the activity of AMPK
